# Test results: PubChem BioAssay (NCI)
#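 Each compound was tested at five concentrations against cells in 96-well plates for 48 hours. The concentration for full growth arrest is given as TGI.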
# Tests used:
# Assay in all cases: NCI anticancer screen, dose series, 48 h
# 786-0 renal = system: 786-0 renal
# SNB-75 CNS = system: SNB-75 CNS
# HT29 colon = system: HT29 colon
# HOP-62 NSCLC = system: HOP-62 NSCLC
# OVCAR-8 ovarian = system: OVCAR-8 ovarian
# CAKI-1 renal = system: CAKI-1 renal
# M14 melanoma = system: M14 melanoma
# UACC-62 melanoma = system: UACC-62 melanoma
# SNB-19 CNS = system: SNB-19 CNS
# HOP-92 NSCLC = system: HOP-92 NSCLC
# SK-MEL-2 melanoma = system: SK-MEL-2 melanoma
# DMS 273 small cell lung = system: DMS 273 small cell lung
# U251 CNS = system: U251 CNS
# RXF-631 renal = system: RXF-631 renal
# HOP-18 NSCLC = system: HOP-18 NSCLC
# UO-31 renal = system: UO-31 renal
# SF-268 CNS = system: SF-268 CNS
# OVCAR-4 ovarian = system: OVCAR-4 ovarian
# NCI-H23 lung = system: NCI-H23 lung
# SK-OV-3 ovarian = system: SK-OV-3 ovarian
# SNB-78 CNS = system: SNB-78 CNS
# A498 renal = system: A498 renal
# K-562 leukemia = system: K-562 leukemia
# UACC-257 melanoma = system: UACC-257 melanoma
# SF-295 CNS = system: SF-295 CNS
# LOX IMVI melanoma = system: LOX IMVI melanoma
# M19-MEL melanoma = system: M19-MEL melanoma
# A549 NSCLC = system: A549 NSCLC
# MALME-3M melanoma = system: MALME-3M melanoma
# SF-539 CNS = system: SF-539 CNS
# TK-10 renal = system: TK-10 renal
# HCT-116 colon = system: HCT-116 colon
# SN12C renal = system: SN12C renal
# KM20L2 colon = system: KM20L2 colon
# COLO 205 colon = system: COLO 205 colon
# HL-60(TB) leukemia = system: HL-60(TB) leukemia
# SK-MEL-28 melanoma = system: SK-MEL-28 melanoma
# OVCAR-3 ovarian = system: OVCAR-3 ovarian
# RXF 393 renal = system: RXF 393 renal
# KM12 colon = system: KM12 colon
# NCI-H226 lung = system: NCI-H226 lung
# ACHN renal = system: ACHN renal
# MOLT-4 leukemia = system: MOLT-4 leukemia
# SR leukemia = system: SR leukemia
# SW-620 colon = system: SW-620 colon
# EKVX NSCLC = system: EKVX NSCLC
# CCRF-CEM leukemia = system: CCRF-CEM leukemia
# XF 498 CNS = system: XF 498 CNS
# OVCAR-5 ovarian = system: OVCAR-5 ovarian
# IGROV1 ovarian = system: IGROV1 ovarian
# NCI-H460 lung = system: NCI-H460 lung
# DLD-1 colon = system: DLD-1 colon
# DMS 114 small cell lung = system: DMS 114 small cell lung
# RPMI-8226 leukemia = system: RPMI-8226 leukemia
# SK-MEL-5 melanoma = system: SK-MEL-5 melanoma
# NCI-H522 lung = system: NCI-H522 lung
# LXFL 529 NSCLC = system: LXFL 529 NSCLC
# HCT-15 colon = system: HCT-15 colon
# HCC-2998 colon = system: HCC-2998 colon
structure (smiles),measurement,setting,value
OCC(CO)C1c2cccc3ccc4cccc1c4c23,TGI,786-0 renal,> 100 µM
same,TGI,SNB-75 CNS,> 100 µM
same,TGI,HT29 colon,> 100 µM
same,TGI,HOP-62 NSCLC,> 100 µM
same,TGI,OVCAR-8 ovarian,> 100 µM
same,TGI,CAKI-1 renal,> 100 µM
same,TGI,M14 melanoma,> 100 µM
same,TGI,UACC-62 melanoma,> 100 µM
same,TGI,SNB-19 CNS,> 100 µM
same,TGI,HOP-92 NSCLC,> 100 µM
same,TGI,SK-MEL-2 melanoma,> 100 µM
same,TGI,DMS 273 small cell lung,> 100 µM
same,TGI,U251 CNS,> 100 µM
same,TGI,RXF-631 renal,> 100 µM
same,TGI,HOP-18 NSCLC,> 100 µM
same,TGI,UO-31 renal,> 100 µM
same,TGI,SF-268 CNS,> 100 µM
same,TGI,OVCAR-4 ovarian,> 100 µM
same,TGI,NCI-H23 lung,> 100 µM
same,TGI,SK-OV-3 ovarian,> 100 µM
same,TGI,SNB-78 CNS,> 100 µM
same,TGI,A498 renal,> 100 µM
same,TGI,K-562 leukemia,> 100 µM
same,TGI,UACC-257 melanoma,> 100 µM
same,TGI,SF-295 CNS,> 100 µM
same,TGI,LOX IMVI melanoma,> 100 µM
same,TGI,M19-MEL melanoma,> 100 µM
same,TGI,A549 NSCLC,> 100 µM
same,TGI,MALME-3M melanoma,> 100 µM
same,TGI,SF-539 CNS,> 100 µM
same,TGI,TK-10 renal,> 100 µM
same,TGI,HCT-116 colon,> 100 µM
same,TGI,SN12C renal,> 100 µM
same,TGI,KM20L2 colon,> 100 µM
same,TGI,COLO 205 colon,> 100 µM
same,TGI,HL-60(TB) leukemia,> 100 µM
same,TGI,SK-MEL-28 melanoma,> 100 µM
same,TGI,OVCAR-3 ovarian,> 100 µM
same,TGI,RXF 393 renal,> 100 µM
same,TGI,KM12 colon,> 100 µM
same,TGI,NCI-H226 lung,> 100 µM
same,TGI,ACHN renal,> 100 µM
same,TGI,MOLT-4 leukemia,> 100 µM
same,TGI,SR leukemia,> 100 µM
same,TGI,SW-620 colon,> 100 µM
same,TGI,EKVX NSCLC,> 100 µM
same,TGI,CCRF-CEM leukemia,> 100 µM
same,TGI,XF 498 CNS,> 100 µM
same,TGI,OVCAR-5 ovarian,> 100 µM
same,TGI,IGROV1 ovarian,> 100 µM
same,TGI,NCI-H460 lung,> 100 µM
same,TGI,DLD-1 colon,> 100 µM
same,TGI,DMS 114 small cell lung,> 100 µM
same,TGI,RPMI-8226 leukemia,> 100 µM
same,TGI,SK-MEL-5 melanoma,> 100 µM
COc1ccc(N(CC(=O)O)S(=O)(=O)c2ccccc2)cc1,TGI,786-0 renal,> 100 µM
same,TGI,HT29 colon,> 100 µM
same,TGI,OVCAR-8 ovarian,> 100 µM
same,TGI,CAKI-1 renal,> 100 µM
same,TGI,M14 melanoma,> 100 µM
same,TGI,UACC-62 melanoma,> 100 µM
same,TGI,SNB-19 CNS,> 100 µM
same,TGI,HOP-92 NSCLC,> 100 µM
same,TGI,SK-MEL-2 melanoma,> 100 µM
same,TGI,NCI-H522 lung,> 100 µM
same,TGI,DMS 273 small cell lung,> 100 µM
same,TGI,U251 CNS,> 100 µM
same,TGI,LXFL 529 NSCLC,> 100 µM
same,TGI,RXF-631 renal,> 100 µM
same,TGI,HOP-18 NSCLC,> 100 µM
same,TGI,UO-31 renal,> 100 µM
same,TGI,OVCAR-4 ovarian,> 100 µM
same,TGI,NCI-H23 lung,> 100 µM
same,TGI,SK-OV-3 ovarian,> 100 µM
same,TGI,A498 renal,> 100 µM
same,TGI,K-562 leukemia,> 100 µM
same,TGI,UACC-257 melanoma,> 100 µM
same,TGI,SF-295 CNS,> 100 µM
same,TGI,LOX IMVI melanoma,> 100 µM
same,TGI,M19-MEL melanoma,> 100 µM
same,TGI,A549 NSCLC,> 100 µM
same,TGI,MALME-3M melanoma,> 100 µM
same,TGI,SF-539 CNS,> 100 µM
same,TGI,TK-10 renal,> 100 µM
same,TGI,SN12C renal,> 100 µM
same,TGI,KM20L2 colon,> 100 µM
same,TGI,COLO 205 colon,> 100 µM
same,TGI,HL-60(TB) leukemia,> 100 µM
same,TGI,OVCAR-3 ovarian,> 100 µM
same,TGI,RXF 393 renal,> 100 µM
same,TGI,KM12 colon,> 100 µM
same,TGI,NCI-H226 lung,> 100 µM
same,TGI,ACHN renal,> 100 µM
same,TGI,MOLT-4 leukemia,> 100 µM
same,TGI,HCT-15 colon,> 100 µM
same,TGI,SW-620 colon,> 100 µM
same,TGI,EKVX NSCLC,> 100 µM
same,TGI,CCRF-CEM leukemia,> 100 µM
same,TGI,XF 498 CNS,> 100 µM
same,TGI,OVCAR-5 ovarian,> 100 µM
same,TGI,IGROV1 ovarian,> 100 µM
same,TGI,NCI-H460 lung,> 100 µM
same,TGI,DLD-1 colon,> 100 µM
same,TGI,RPMI-8226 leukemia,> 100 µM
same,TGI,SK-MEL-5 melanoma,> 100 µM
COC(=O)c1sc(=O)n(-c2ccccc2)c1SCc1ccccc1,TGI,786-0 renal,> 100 µM
same,TGI,SNB-75 CNS,> 100 µM
same,TGI,HT29 colon,> 100 µM
same,TGI,HOP-62 NSCLC,> 100 µM
same,TGI,OVCAR-8 ovarian,> 100 µM
same,TGI,HCC-2998 colon,> 100 µM
same,TGI,M14 melanoma,> 100 µM
same,TGI,UACC-62 melanoma,> 100 µM
same,TGI,SNB-19 CNS,> 100 µM
same,TGI,HOP-92 NSCLC,> 100 µM
same,TGI,SK-MEL-2 melanoma,> 100 µM
same,TGI,NCI-H522 lung,> 100 µM
same,TGI,DMS 273 small cell lung,> 100 µM
same,TGI,U251 CNS,> 100 µM
same,TGI,LXFL 529 NSCLC,> 100 µM
same,TGI,RXF-631 renal,> 100 µM
same,TGI,HOP-18 NSCLC,> 100 µM
same,TGI,UO-31 renal,> 100 µM
same,TGI,OVCAR-4 ovarian,> 100 µM
same,TGI,NCI-H23 lung,> 100 µM
same,TGI,SK-OV-3 ovarian,> 100 µM
same,TGI,K-562 leukemia,> 100 µM
same,TGI,UACC-257 melanoma,> 100 µM
same,TGI,SF-295 CNS,> 100 µM
same,TGI,LOX IMVI melanoma,> 100 µM
same,TGI,M19-MEL melanoma,> 100 µM
same,TGI,A549 NSCLC,> 100 µM
same,TGI,MALME-3M melanoma,> 100 µM
same,TGI,SF-539 CNS,> 100 µM
same,TGI,TK-10 renal,> 100 µM
same,TGI,HCT-116 colon,> 100 µM
same,TGI,SN12C renal,> 100 µM
same,TGI,KM20L2 colon,> 100 µM
same,TGI,COLO 205 colon,> 100 µM
same,TGI,HL-60(TB) leukemia,> 100 µM
same,TGI,SK-MEL-28 melanoma,> 100 µM
same,TGI,OVCAR-3 ovarian,> 100 µM
same,TGI,RXF 393 renal,> 100 µM
same,TGI,KM12 colon,> 100 µM
same,TGI,NCI-H226 lung,> 100 µM
same,TGI,ACHN renal,> 100 µM
same,TGI,MOLT-4 leukemia,> 100 µM
same,TGI,HCT-15 colon,> 100 µM
same,TGI,SR leukemia,> 100 µM
same,TGI,SW-620 colon,> 100 µM
same,TGI,EKVX NSCLC,> 100 µM
same,TGI,CCRF-CEM leukemia,> 100 µM
same,TGI,XF 498 CNS,> 100 µM
same,TGI,OVCAR-5 ovarian,> 100 µM
same,TGI,IGROV1 ovarian,> 100 µM
same,TGI,NCI-H460 lung,> 100 µM
same,TGI,DLD-1 colon,> 100 µM
same,TGI,RPMI-8226 leukemia,> 100 µM
same,TGI,SK-MEL-5 melanoma,> 100 µM
c1ccc(C(c2ccccc2)c2ccncc2)cc1,TGI,786-0 renal,> 100 µM
same,TGI,SNB-75 CNS,74.3 µM
same,TGI,HT29 colon,> 100 µM
same,TGI,HOP-62 NSCLC,> 100 µM
same,TGI,OVCAR-8 ovarian,> 100 µM
same,TGI,HCC-2998 colon,> 100 µM
same,TGI,CAKI-1 renal,> 100 µM
same,TGI,M14 melanoma,> 100 µM
same,TGI,UACC-62 melanoma,> 100 µM
same,TGI,SNB-19 CNS,> 100 µM
same,TGI,SK-MEL-2 melanoma,> 100 µM
same,TGI,DMS 273 small cell lung,> 100 µM
same,TGI,U251 CNS,> 100 µM
same,TGI,RXF-631 renal,> 100 µM
same,TGI,HOP-18 NSCLC,> 100 µM
same,TGI,UO-31 renal,> 100 µM
same,TGI,SF-268 CNS,> 100 µM
same,TGI,OVCAR-4 ovarian,> 100 µM
same,TGI,NCI-H23 lung,> 100 µM
same,TGI,SK-OV-3 ovarian,> 100 µM
same,TGI,SNB-78 CNS,> 100 µM
same,TGI,A498 renal,> 100 µM
same,TGI,K-562 leukemia,> 100 µM
same,TGI,UACC-257 melanoma,> 100 µM
same,TGI,SF-295 CNS,> 100 µM
same,TGI,LOX IMVI melanoma,> 100 µM
same,TGI,M19-MEL melanoma,> 100 µM
same,TGI,A549 NSCLC,> 100 µM
same,TGI,MALME-3M melanoma,> 100 µM
same,TGI,SF-539 CNS,> 100 µM
same,TGI,TK-10 renal,> 100 µM
same,TGI,HCT-116 colon,> 100 µM
same,TGI,SN12C renal,> 100 µM
same,TGI,KM20L2 colon,> 100 µM
same,TGI,COLO 205 colon,> 100 µM
same,TGI,SK-MEL-28 melanoma,> 100 µM
same,TGI,OVCAR-3 ovarian,> 100 µM
same,TGI,KM12 colon,> 100 µM
same,TGI,NCI-H226 lung,> 100 µM
same,TGI,ACHN renal,> 100 µM
same,TGI,MOLT-4 leukemia,> 100 µM
same,TGI,HCT-15 colon,> 100 µM
same,TGI,SW-620 colon,> 100 µM
same,TGI,EKVX NSCLC,> 100 µM
same,TGI,CCRF-CEM leukemia,> 100 µM
same,TGI,XF 498 CNS,> 100 µM
same,TGI,OVCAR-5 ovarian,> 100 µM
same,TGI,IGROV1 ovarian,> 100 µM
same,TGI,NCI-H460 lung,> 100 µM
same,TGI,DLD-1 colon,> 100 µM
same,TGI,DMS 114 small cell lung,> 100 µM
same,TGI,RPMI-8226 leukemia,> 100 µM
same,TGI,SK-MEL-5 melanoma,> 100 µM
